ChEMBL document CHEMBL5506025, “Discovery of LLC0424 as a Potent and Selective in Vivo NSD2 PROTAC Degrader” (J Med Chem, 2024)
Calls of active or inactive are those of the source. No cut-off for these calls is given here.

Experiments:
[1] = biological target: T1, Protein cereblon/Eukaryotic peptide chain release factor GTP-binding subunit ERF3A (Homo sapiens) (UniProt Q96SW2+P15170); experiment: PROTAC activity at CRBN/GSPT1 in human VCaP cells assessed as decrease in GSPT1 level at 2 uM measured upto 8 hrs by immunoblot analysis; format: cell-based
[2] = biological target: T2, Protein cereblon/Histone-lysine N-methyltransferase NSD2 (Homo sapiens) (UniProt O96028+Q96SW2); experiment: PROTAC activity at CRBN/NSD2 in human SEM cells assessed as decrease in NSD2 level at 2 uM measured after 4 hrs by TMT-labeled quantitative proteomics assay; format: cell-based
[3] = biological target: T1, Protein cereblon/Eukaryotic peptide chain release factor GTP-binding subunit ERF3A (Homo sapiens); experiment: PROTAC activity at CRBN/GSPT1 in human RPMI 8402 cells assessed as decrease in GSPT1 level at 2 uM measured after 12 hrs by TMT-labeled quantitative proteomics assay; format: cell-based
[4] = biological target: T2, Protein cereblon/Histone-lysine N-methyltransferase NSD2 (Homo sapiens); experiment: PROTAC activity at CRBN/NSD2 in human SEM cells assessed as induction of NSD2 degradation at 2 uM measured after 4 to 8 hrs hrs by immunoblot analysis; format: cell-based; settings: time 4-8 hrs
SEM cells = experiment: Cytotoxicity against human SEM cells harbouring NSD2 assessed as inhibition of cell growth at 2 uM measured after 9 days by Celltiter-glo assay; format: functional, cell-based; settings: time 9.0 day
[5] = biological target: T2, Protein cereblon/Histone-lysine N-methyltransferase NSD2 (Homo sapiens); experiment: In vivo PROTAC activity at CRBN/NSD2 in SCID mouse xenografted with human 22Rv1 cells assessed as downregulation of NSD2 level at 60 mg/kg, iv for 5 days by Western blot analysis; format: functional, organism-based; settings: CWR22R, time 5.0 day
[6] = biological target: T2, Protein cereblon/Histone-lysine N-methyltransferase NSD2 (Homo sapiens); experiment: PROTAC activity at CRBN/NSD2 in human RPMI 8402 cells assessed as induction of NSD2 degradation at 2 uM pretreated with VL-285 for 2 hrs followed by compound addition and measured after 6 to 12 hrs by Western blot analysis; format: cell-based; settings: time 6-12 hrs
[7] = biological target: T2, Protein cereblon/Histone-lysine N-methyltransferase NSD2 (Homo sapiens); experiment: PROTAC activity at CRBN/NSD2 in human RPMI 8402 cells assessed as induction of NSD2 degradation incubated for 24 hrs by immunoblot analysis; format: cell-based; settings: dose 0.001-10 µM
[8] = biological target: T2, Protein cereblon/Histone-lysine N-methyltransferase NSD2 (Homo sapiens); experiment: PROTAC activity at CRBN/NSD2 in human SEM cells assessed as induction of NSD2 degradation at 2 uM measured after 12 to 24 hrs by immunoblot analysis; format: cell-based; settings: time 12-24 hrs
[9] = biological target: T2, Protein cereblon/Histone-lysine N-methyltransferase NSD2 (Homo sapiens); experiment: PROTAC activity at CRBN/NSD2 in human VCaP cells assessed as decrease in NSD2 level at 2 uM measured after 6 hrs by TMT-labeled quantitative proteomics assay; format: cell-based
[10] = biological target: T2, Protein cereblon/Histone-lysine N-methyltransferase NSD2 (Homo sapiens); experiment: PROTAC activity at CRBN/NSD2 in human RPMI 8402 cells assessed as induction of NSD2 degradation at 2 uM pretreated with bortezomib for 2 hrs followed by compound addition and measured after 6 to 12 hrs by Western blot analysis; format: cell-based; settings: time 6-12 hrs
[11] = biological target: T2, Protein cereblon/Histone-lysine N-methyltransferase NSD2 (Homo sapiens); experiment: PROTAC activity at CRBN/NSD2 in human RPMI 8402 cells assessed as decrease in NSD2 level at 2 uM measured after 12 hrs by TMT-labeled quantitative proteomics assay; format: cell-based
[12] = biological target: T1, Protein cereblon/Eukaryotic peptide chain release factor GTP-binding subunit ERF3A (Homo sapiens); experiment: PROTAC activity at CRBN/GSPT1 in human SEM cells assessed as decrease in GSPT1 level at 2 uM measured after 12 hrs by immunoblot analysis; format: cell-based
[13] = biological target: T2, Protein cereblon/Histone-lysine N-methyltransferase NSD2 (Homo sapiens); experiment: In vivo PROTAC activity at CRBN/NSD2 in SCID mouse xenografted with human 22Rv1 cells assessed as downregulation of NSD2 level at 60 mg/kg, ip for 5 days by immunohistochemical analysis; format: functional, organism-based; settings: CWR22R, time 5.0 day
[14] = biological target: T2, Protein cereblon/Histone-lysine N-methyltransferase NSD2 (Homo sapiens); experiment: In vivo PROTAC activity at CRBN/NSD2 in SCID mouse xenografted with human SEM cells assessed as downregulation of NSD2 level at 60 mg/kg, iv for 5 days by immunohistochemical analysis; format: functional, organism-based; settings: time 5.0 day

T2 sequence (O96028 whole entry, looked up): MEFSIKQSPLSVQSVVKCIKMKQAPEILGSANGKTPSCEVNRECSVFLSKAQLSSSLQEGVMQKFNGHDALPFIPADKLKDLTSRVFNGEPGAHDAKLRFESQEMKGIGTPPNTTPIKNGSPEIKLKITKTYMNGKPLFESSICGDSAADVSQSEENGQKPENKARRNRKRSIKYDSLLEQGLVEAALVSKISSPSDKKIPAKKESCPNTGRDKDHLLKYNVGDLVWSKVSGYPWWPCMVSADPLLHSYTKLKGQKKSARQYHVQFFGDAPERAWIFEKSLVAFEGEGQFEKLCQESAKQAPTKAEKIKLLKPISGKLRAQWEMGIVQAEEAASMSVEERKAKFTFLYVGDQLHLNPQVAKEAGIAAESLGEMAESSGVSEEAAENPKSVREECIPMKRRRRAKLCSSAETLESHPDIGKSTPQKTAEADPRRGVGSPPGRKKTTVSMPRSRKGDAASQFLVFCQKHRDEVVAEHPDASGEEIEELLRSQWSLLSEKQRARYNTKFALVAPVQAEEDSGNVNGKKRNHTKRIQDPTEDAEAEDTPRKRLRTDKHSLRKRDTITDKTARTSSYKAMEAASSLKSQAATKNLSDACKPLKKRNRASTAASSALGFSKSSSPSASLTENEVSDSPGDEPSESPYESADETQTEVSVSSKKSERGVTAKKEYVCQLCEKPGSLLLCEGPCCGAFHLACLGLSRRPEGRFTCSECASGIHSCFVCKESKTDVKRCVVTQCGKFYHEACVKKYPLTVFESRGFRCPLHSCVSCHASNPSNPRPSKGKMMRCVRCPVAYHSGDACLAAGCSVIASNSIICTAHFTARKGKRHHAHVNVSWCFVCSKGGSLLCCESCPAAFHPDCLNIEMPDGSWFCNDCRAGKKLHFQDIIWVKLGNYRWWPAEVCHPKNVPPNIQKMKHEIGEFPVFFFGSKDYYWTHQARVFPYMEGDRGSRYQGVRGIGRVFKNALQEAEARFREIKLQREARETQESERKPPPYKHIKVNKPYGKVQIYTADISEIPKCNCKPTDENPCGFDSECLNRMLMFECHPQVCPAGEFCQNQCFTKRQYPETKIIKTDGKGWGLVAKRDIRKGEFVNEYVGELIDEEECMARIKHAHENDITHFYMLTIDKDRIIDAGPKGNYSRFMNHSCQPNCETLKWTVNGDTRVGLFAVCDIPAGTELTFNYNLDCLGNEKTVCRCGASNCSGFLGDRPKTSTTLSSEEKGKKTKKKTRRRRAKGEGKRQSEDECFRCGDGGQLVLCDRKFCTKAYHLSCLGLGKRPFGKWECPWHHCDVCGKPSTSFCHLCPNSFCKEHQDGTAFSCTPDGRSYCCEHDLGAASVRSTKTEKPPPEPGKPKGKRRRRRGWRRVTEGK
T2 sequence (Q96SW2 whole entry, looked up): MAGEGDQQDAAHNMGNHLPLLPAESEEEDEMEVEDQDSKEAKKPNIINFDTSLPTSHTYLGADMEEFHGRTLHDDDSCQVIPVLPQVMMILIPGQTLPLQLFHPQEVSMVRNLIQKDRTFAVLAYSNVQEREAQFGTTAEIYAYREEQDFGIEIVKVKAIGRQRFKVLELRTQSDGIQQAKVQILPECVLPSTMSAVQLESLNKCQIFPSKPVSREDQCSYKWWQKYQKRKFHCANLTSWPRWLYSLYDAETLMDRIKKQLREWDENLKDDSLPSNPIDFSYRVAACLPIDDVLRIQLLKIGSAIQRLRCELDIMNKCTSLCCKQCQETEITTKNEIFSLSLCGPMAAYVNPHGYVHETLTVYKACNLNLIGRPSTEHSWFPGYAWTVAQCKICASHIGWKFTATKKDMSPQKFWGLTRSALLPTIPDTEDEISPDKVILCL
T1 sequence (P15170 whole entry, looked up): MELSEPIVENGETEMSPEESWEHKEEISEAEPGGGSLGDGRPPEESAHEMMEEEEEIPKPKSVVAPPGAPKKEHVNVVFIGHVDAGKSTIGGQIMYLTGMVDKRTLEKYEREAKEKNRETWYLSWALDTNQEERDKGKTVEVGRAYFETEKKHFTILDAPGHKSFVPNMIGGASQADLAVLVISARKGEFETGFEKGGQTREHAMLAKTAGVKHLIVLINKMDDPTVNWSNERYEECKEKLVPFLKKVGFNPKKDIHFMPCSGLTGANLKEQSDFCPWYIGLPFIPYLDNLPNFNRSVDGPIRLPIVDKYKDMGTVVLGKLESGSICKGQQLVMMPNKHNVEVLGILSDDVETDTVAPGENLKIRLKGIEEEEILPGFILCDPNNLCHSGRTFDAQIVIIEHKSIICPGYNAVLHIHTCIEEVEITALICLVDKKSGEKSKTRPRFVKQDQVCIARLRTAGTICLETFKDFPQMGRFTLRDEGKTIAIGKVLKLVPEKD
T1 sequence (Q96SW2 whole entry, looked up): as the sequence (Q96SW2 whole entry, looked up) above

Activity [1]: inactive
Activity [2]: Active
Activity [3]: Active
Activity [4]: Active
Activity [5]: Active
Activity [6]: Active
Activity [7]: Dose-Dependent Effect
Activity [8]: Active
Activity [9]: Active
Activity [10]: inactive
Activity [11]: Active
Activity [12]: Active
Activity [13]: Active
Activity [14]: Active
Structure (SMILES): O=C1CCC(N2C(=O)c3ccc(N4CCC(NC(=O)c5ccc(NC(=O)c6ccc(CN(C(=O)c7ccc8c(c7)OCC(=O)N8)C7CC7)cc6)cc5)CC4)cc3C2=O)C(=O)N1 (stereo not given)
Activity (SEM cells): Active
